{"source": "paper PMC3880629", "about": "(Journal of medicinal chemistry, 2013)", "key": {"CB1 wild-type receptor [1]": {"biological_target": "T1, CB1 wild-type receptor (Homo sapiens, UniProt P21554)", "T1 sequence (P21554 whole entry)": "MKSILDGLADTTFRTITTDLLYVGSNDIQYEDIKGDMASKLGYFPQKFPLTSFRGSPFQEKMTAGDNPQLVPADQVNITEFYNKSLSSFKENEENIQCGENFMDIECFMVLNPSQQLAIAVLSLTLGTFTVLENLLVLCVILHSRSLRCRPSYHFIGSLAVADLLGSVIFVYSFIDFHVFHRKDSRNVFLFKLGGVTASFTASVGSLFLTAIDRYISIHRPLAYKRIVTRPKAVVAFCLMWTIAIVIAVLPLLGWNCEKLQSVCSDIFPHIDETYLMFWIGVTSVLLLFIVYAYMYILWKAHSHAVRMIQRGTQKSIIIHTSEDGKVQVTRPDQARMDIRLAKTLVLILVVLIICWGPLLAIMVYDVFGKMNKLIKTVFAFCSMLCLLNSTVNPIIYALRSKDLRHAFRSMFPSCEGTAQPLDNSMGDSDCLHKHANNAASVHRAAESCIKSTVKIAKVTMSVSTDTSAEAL", "test": "[35S]GTPγS binding assay", "assay_type": "biochemical", "conditions": "for Concentration giving complete inhibition of CP55,940-induced [35S]GTPγS binding / Effect on CP55,940-induced [35S]GTPγS binding in the presence of allosteric modulator: HEK293 cell membranes expressing CB1"}, "CB1 wild-type receptor [2]": {"biological_target": "T1, CB1 wild-type receptor", "assay_type": "binding", "conditions": "for α: binding cooperativity factor between CP55,940 and the tested allosteric modulator: HEK293 cell membranes expressing CB1, tracer [3H]CP55,940"}, "[3]": {"test": "Solubility in common organic solvents", "assay_type": "physicochemical", "conditions": "acetone, ethyl acetate, tetrahydrofuran, dichloromethane, diethyl ether, ethanol and methanol"}, "CB1 wild-type receptor [4]": {"biological_target": "T1, CB1 wild-type receptor", "conditions": "cited from earlier work; for Effect on CP55,940-induced [35S]GTPγS binding in the presence of allosteric modulator: earlier report, given for comparison"}, "CB1 wild-type receptor [5]": {"biological_target": "T1, CB1 wild-type receptor", "conditions": "earlier report, given for comparison; cited from earlier work"}}, "note": "Where two headings read alike, the source gives them in different places.", "data": [{"compound": "CCCCCc1c(C(=O)NCCc2ccc(N(C)C)cc2)[nH]c2ccc(Cl)cc12", "note": "[11j, 5-Chloro-N-(4-(dimethylamino)phenethyl)-3-pentyl-1H-indole-2-carboxamide]", "values": [{"measurement": "Concentration giving complete inhibition of CP55,940-induced [35S]GTPγS binding", "setting": "CB1 wild-type receptor [1]", "result": 1, "unit": "µM"}, {"measurement": "Effect on CP55,940-induced [35S]GTPγS binding in the presence of allosteric modulator", "setting": "CB1 wild-type receptor [1]", "result": "Antagonizing"}, {"measurement": "Concentration giving complete inhibition of basal [35S]GTPγS binding", "setting": "CB1 wild-type receptor [1]; absence of orthosteric ligand, 5 μM GDP", "result": 10, "unit": "µM"}, {"measurement": "α: binding cooperativity factor between CP55,940 and the tested allosteric modulator", "setting": "CB1 wild-type receptor [2]", "result": 16.55}]}, {"compound": "O=C(NCCc1ccc(N2CCCCC2)cc1)c1[nH]c2ccc(Cl)cc2c1-c1ccccc1", "note": "[11b, 5-Chloro-3-phenyl-N-(4-(piperidin-1-yl)phenethyl)-1H-indole-2-carboxamide]", "values": [{"measurement": "α: binding cooperativity factor between CP55,940 and the tested allosteric modulator", "setting": "CB1 wild-type receptor [2]", "result": 1.0}, {"measurement": "Solubility in organic solvents", "setting": "[3]", "result": "very poor solubility"}]}, {"compound": "CCc1c(C(=O)NCCc2ccc(N3CCCCC3)cc2)[nH]c2ccc(Cl)cc12", "note": "[compound 1, 5-chloro-3-ethyl-N-(4-(piperidin-1-yl)phenethyl)-1H-indole-2-carboxamide, reference compound]", "values": [{"measurement": "Concentration at which G protein coupling was inhibited", "setting": "CB1 wild-type receptor [4]", "result": 3.2, "unit": "µM"}, {"measurement": "Effect on CP55,940-induced [35S]GTPγS binding in the presence of allosteric modulator", "setting": "CB1 wild-type receptor [4]", "result": "Antagonizing"}, {"measurement": "α: binding cooperativity factor between CP55,940 and the tested allosteric modulator", "setting": "CB1 wild-type receptor [5]", "result": 6.95}]}, {"compound": "CCCCCCCc1c(C(=O)NCCc2ccc(N3CCCCC3)cc2)[nH]c2ccc(Cl)cc12", "note": "[11e]", "values": [{"measurement": "α: binding cooperativity factor between CP55,940 and the tested allosteric modulator", "setting": "CB1 wild-type receptor [2]", "result": 7.38}]}, {"compound": "CCCCCc1c(C(=O)NC(CO)Cc2ccc(N(C)C)cc2)[nH]c2ccc(Cl)cc12", "note": "(centres unmarked) [11k, 5-Chloro-N-(1-(4-(dimethylamino)phenyl)-3-hydroxypropan-2-yl)-3-pentyl-1H-indole-2-carboxamide]", "values": [{"measurement": "α: binding cooperativity factor between CP55,940 and the tested allosteric modulator", "setting": "CB1 wild-type receptor [2]", "result": 13.27}]}, {"compound": "CCCCCc1c(C(=O)NCc2ccc(N3CCCCC3)cc2)[nH]c2ccc(Cl)cc12", "note": "[11g, 5-Chloro-3-pentyl-N-(4-(piperidin-1-yl)benzyl)-1H-indole-2-carboxamide]", "values": [{"measurement": "α: binding cooperativity factor between CP55,940 and the tested allosteric modulator", "setting": "CB1 wild-type receptor [2]", "result": 1.0}]}, {"compound": "CN(C)c1ccc(CCNC(=O)c2cc3cc(Cl)ccc3o2)cc1", "note": "[13d, 5-Chloro-N-(4-(dimethylamino)phenethyl)benzofuran-2-carboxamide]", "values": [{"measurement": "α: binding cooperativity factor between CP55,940 and the tested allosteric modulator", "setting": "CB1 wild-type receptor [2]", "result": 1.0}]}, {"compound": "O=C(NCCc1ccc(N2CCCCC2)cc1)c1[nH]c2ccc(Cl)cc2c1CC1CCCCC1", "note": "[11d, 5-Chloro-3-(cyclohexylmethyl)-N-(4-(piperidin-1-yl)phenethyl)-1H-indole-2-carboxamide]", "values": [{"measurement": "α: binding cooperativity factor between CP55,940 and the tested allosteric modulator", "setting": "CB1 wild-type receptor [2]", "result": 9.84}, {"measurement": "Solubility in organic solvents", "setting": "[3]", "result": "very poor solubility"}]}, {"compound": "CCCCCc1c(C(=O)NCCc2ccc(Oc3ccccc3)cc2)[nH]c2ccc(Cl)cc12", "note": "[11i, 5-Chloro-3-pentyl-1H-indole-2-carboxylic acid [2-(4-phenoxy-phenyl)-ethyl]-amide]", "values": [{"measurement": "α: binding cooperativity factor between CP55,940 and the tested allosteric modulator", "setting": "CB1 wild-type receptor [2]", "result": 13.15}]}, {"compound": "O=C(NCCc1ccc(N2CCCCC2)cc1)c1[nH]c2ccc(Cl)cc2c1Cc1ccccc1", "note": "[11c, 3-Benzyl-5-chloro-N-(4-(piperidin-1-yl)phenethyl)-1H-indole-2-carboxamide]", "values": [{"measurement": "α: binding cooperativity factor between CP55,940 and the tested allosteric modulator", "setting": "CB1 wild-type receptor [2]", "result": 11.37}, {"measurement": "Solubility in organic solvents", "setting": "[3]", "result": "very poor solubility"}]}, {"compound": "CCc1c(C(=O)NCCc2ccc(N(C)C)cc2)[nH]c2ccc(Cl)cc12", "note": "[11l, 5-Chloro-N-(4-(dimethylamino)phenethyl)-3-ethyl-1H-indole-2-carboxamide]", "values": [{"measurement": "α: binding cooperativity factor between CP55,940 and the tested allosteric modulator", "setting": "CB1 wild-type receptor [2]", "result": 19.68}]}, {"compound": "O=C(NCCc1ccc(N2CCCCC2)cc1)c1cc2cc(Cl)ccc2o1", "note": "[13a, 5-Chloro-N-(4-(piperidin-1-yl)phenethyl)benzofuran-2-carboxamide]", "values": [{"measurement": "α: binding cooperativity factor between CP55,940 and the tested allosteric modulator", "setting": "CB1 wild-type receptor [2]", "result": 1.0}]}, {"compound": "CCc1c(C(=O)NCCc2ccc(N3CCCCC3)cc2)oc2ccc(Cl)cc12", "note": "[13b, 5-Chloro-3-ethyl-N-(4-(piperidin-1-yl)phenethyl)benzofuran-2-carboxamide]", "values": [{"measurement": "Concentration giving complete inhibition of CP55,940-induced [35S]GTPγS binding", "setting": "CB1 wild-type receptor [1]", "result": "at least 10 μM"}, {"measurement": "Effect on CP55,940-induced [35S]GTPγS binding in the presence of allosteric modulator", "setting": "CB1 wild-type receptor [1]", "result": "Antagonizing"}, {"measurement": "α: binding cooperativity factor between CP55,940 and the tested allosteric modulator", "setting": "CB1 wild-type receptor [2]", "result": 18.04}]}, {"compound": "CCCCCCC(C)(C)c1ccc([C@@H]2C[C@H](O)CC[C@H]2CCCO)c(O)c1", "note": "[CP55,940, 2-[(1R,2R,5R)-5-hydroxy-2-(3-hydroxypropyl)cyclohexyl]-5-(2-methyloctan-2-yl)phenol, reference compound]", "values": [{"measurement": "Emax of CP55,940-induced [35S]GTPγS binding", "setting": "CB1 wild-type receptor [1]; in the absence of allosteric modulator (11j), mean ± S.E.", "result": "113.0 ± 2.6", "unit": "fmol/mg"}]}, {"compound": "CCCCCc1c(C(=O)NCCc2ccc(N3CCOCC3)cc2)[nH]c2ccc(Cl)cc12", "note": "[11h, 5-Chloro-N-(4-morpholinophenethyl)-3-pentyl-1H-indole-2-carboxamide]", "values": [{"measurement": "Concentration giving complete inhibition of CP55,940-induced [35S]GTPγS binding", "setting": "CB1 wild-type receptor [1]", "result": "at least 10 μM"}, {"measurement": "Effect on CP55,940-induced [35S]GTPγS binding in the presence of allosteric modulator", "setting": "CB1 wild-type receptor [1]", "result": "Antagonizing"}, {"measurement": "α: binding cooperativity factor between CP55,940 and the tested allosteric modulator", "setting": "CB1 wild-type receptor [2]", "result": 10.0}]}, {"compound": "CCCCCc1c(C(=O)NCCc2ccc(N3CCCCC3)cc2)[nH]c2ccc(Cl)cc12", "note": "[11a, 5-Chloro-3-pentyl-N-(4-(piperidin-1-yl)phenethyl)-1H-indole-2-carboxamide]", "values": [{"measurement": "Concentration at which G protein coupling was inhibited", "setting": "CB1 wild-type receptor [4]", "result": 3.2, "unit": "µM"}, {"measurement": "Effect on CP55,940-induced [35S]GTPγS binding in the presence of allosteric modulator", "setting": "CB1 wild-type receptor [4]", "result": "Antagonizing"}, {"measurement": "α: binding cooperativity factor between CP55,940 and the tested allosteric modulator", "setting": "CB1 wild-type receptor [5]", "result": 17.6}]}, {"compound": "CCc1c(C(=O)NCCc2ccc(N(C)C)cc2)oc2ccc(Cl)cc12", "note": "[13c, 5-Chloro-N-(4-(dimethylamino)phenethyl)-3-ethylbenzofuran-2-carboxamide]", "values": [{"measurement": "Fold increase in KB on replacing the indole ring with a benzofuran ring", "setting": "CB1 wild-type receptor [2]; 13c versus 11l", "result": 3, "unit": "fold"}, {"measurement": "α: binding cooperativity factor between CP55,940 and the tested allosteric modulator", "setting": "CB1 wild-type receptor [2]", "result": 11.59}]}, {"compound": "CCCCCCCCCc1c(C(=O)NCCc2ccc(N3CCCCC3)cc2)[nH]c2ccc(Cl)cc12", "note": "[11f]", "values": [{"measurement": "Concentration giving complete inhibition of CP55,940-induced [35S]GTPγS binding", "setting": "CB1 wild-type receptor [1]", "result": "at least 10 μM"}, {"measurement": "Effect on CP55,940-induced [35S]GTPγS binding in the presence of allosteric modulator", "setting": "CB1 wild-type receptor [1]", "result": "Antagonizing"}, {"measurement": "α: binding cooperativity factor between CP55,940 and the tested allosteric modulator", "setting": "CB1 wild-type receptor [2]", "result": 6.80}]}]}
